From paper PMC9961069 (Metabolites, 2023)

What was measured:
[1] = target: T1, purified human DHFR (Homo sapiens, UniProt P00374); assay: DHFR enzymatic inhibition assay (NADPH absorbance at 340 nm); type: biochemical; details: 200 nM DHFR, 137.5 μM DHF, 125 μM NADPH; n = 2; read-out: IC50
T1 construct: made in house; host or cells: E. coli BL21 (DE3) T1R pRARE2, pNIC-Bsa4 plasmid
T1 sequence (P00374 1-187): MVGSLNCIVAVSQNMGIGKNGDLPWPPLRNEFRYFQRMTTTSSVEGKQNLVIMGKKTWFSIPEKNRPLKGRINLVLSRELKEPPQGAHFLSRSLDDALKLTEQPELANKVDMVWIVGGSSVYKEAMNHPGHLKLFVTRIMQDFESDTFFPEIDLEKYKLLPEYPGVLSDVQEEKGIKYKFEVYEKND
Procedure: Working stocks of each inhibitor were created so that the final concentration of DMSO in each reaction was 2% in a final reaction volume of 100 μL. […] Reactions were prepared on ice in 384-well plates. […] Consumption of NADPH by measuring absorbance at 340 nm was used to monitor the progress of the reaction. Readings were taken every 5 min for 1 h at 37 °C using a Synergy MX microplate reader (BioTek).
Percent inhibition relative to the no-inhibitor control was determined using Equation (1). (1) % Inhibition=A340Inhibitor−A340DMSO Control/A340No DHFR−A340DMSO Control×100
Percent inhibition data were then fit to the four-parameter logistic model (Equation (2)) in GraphPad Prism 9.4.1 to determine half-maximal inhibitory concentrations (IC50):(2) y=Bottom+Top−Bottom/1+IC50/x^Hill slope where y represents the percent inhibition, x represents the concentration of inhibitor (μM), the bottom and top represent the bottom and top plateaus, and the Hill slope represents the slope factor. Each experiment contained duplicates of each sample, and each experiment was performed 2 times (n = 2). An ordinary one-way ANOVA was used to test for statistical significance between treatments.

[2] = tested on: MCF-7 cells; assay: Resazurin viability assay with or without folinic acid, MCF-7; type: cell-based, Human; details: 72 h; for Relative Viability (%) – Inhibitor + FA Treatment: MCF-7, 10 μM + 300 μg/mL folinic acid; for Relative Viability (%) – Inhibitor Alone: MCF-7, 10 μM, relative to DMSO; for Rescue of viability impairment by folinic acid: MCF-7, 10 μM ± 300 μg/mL FA
Procedure: (§1) The incorporation and metabolism of resazurin to resorufin was used to monitor cell viability. MDA-MB-468, MCF7, and MDA-MB-231 cells were grown in 96-well plates with a total of 5000 cells per well in a total volume of 180 μL for 24 h, as described above. After 24 h of growth, cells were treated with increasing concentrations of compounds (0.0457–100 μM) for 72 h. A vehicle control was also performed. […] The volume of treatment added to each well was 20 μL. For folinic acid rescue experiments, 5000 cells were treated with 10 μM compound with or without 300 μg/mL folinic acid (Supelco). After 72 h of treatment, resazurin was added to a final concentration of 44 μM, and cells were incubated for an additional 4 h at 37 °C. The fluorescence of resorufin was monitored on a Synergy MX microplate reader (BioTek) using an excitation wavelength of 540 nm and an emission wavelength of 600 nm. Percent viability relative to the DMSO control was determined. Each treatment was performed in triplicate, and each individual experiment was repeated three times (n = 3).

[3] = tested on: MDA-MB-231 cells; assay: Resazurin viability assay with or without folinic acid, MDA-MB-231; type: cell-based, Human; details: 72 h; for Relative Viability (%) – Inhibitor + FA Treatment: MDA-MB-231, 10 μM + 300 μg/mL folinic acid; for Rescue of viability impairment by folinic acid: MDA-MB-231, 10 μM ± 300 μg/mL FA; for Relative Viability (%) – Inhibitor Alone: MDA-MB-231, 10 μM, relative to DMSO
Procedure: as §1

[4] = tested on: MDA-MB-468 cells; assay: Resazurin viability assay with or without folinic acid, MDA-MB-468; type: cell-based, Human; details: 72 h; for Relative Viability (%) – Inhibitor + FA Treatment: MDA-MB-468, 10 μM + 300 μg/mL folinic acid; for Rescue of viability impairment by folinic acid: MDA-MB-468, 10 μM ± 300 μg/mL FA; for Relative Viability (%) – Inhibitor Alone: MDA-MB-468, 10 μM, relative to DMSO
Procedure: as §1

[5] = tested on: T2, DHFR in MDA-MB-468 lysates; assay: Lysate cellular thermal shift assay (CETSA) for DHFR; type: binding, Human; details: 10 μM, MDA-MB-468 lysate, 45 °C for 3 min, DMSO at 37 °C = 100%
T2 construct: reactions containing 55 μg MDA-MB-468 lysate; endogenous in cells; host or cells: MDA-MB-468
Procedure: Trypsinized MDA-MB-468 cells were harvested by centrifugation at 200× g for 5 min and washed with PBS supplemented with EDTA-free PIC (Roche) and flash frozen for storage at −80 °C. Cells were lysed by resuspension in 60 μL PBS/PIC per 1 × 10^6 cells. Cells were lysed by three freeze-thaw cycles, where cells were frozen in an ethanol/dry ice bath for 3 min, immediately followed by incubation in a 37 °C water bath for 3 min. The insoluble fraction was removed by centrifugation at 20,000× g for 20 min at 4 °C. The supernatant containing the soluble lysate was removed and saved for subsequent steps.
After incubation, each reaction was transferred to a 1.5 mL tube and centrifuged at 20,000× g for 20 min at 4 °C to remove the insoluble proteins. After centrifugation, 18 μL of supernatant was carefully removed from each reaction, without disturbing any pelleted aggregates, and added to 4.5 μL of 5× SDS-PAGE loading buffer. 11 μL of each reaction was loaded onto a gel in duplicate, and proteins were detected by Western blot (as described below). Resulting band densities were fit to the Boltzmann equation to determine the melting temperature (Tm):(3) y=Bottom+Top−Bottom/1+e^Tm−x/Slope
To rescue the thermal degradation of DHFR by inhibitors, samples containing 10 μM inhibitor, 55 μg lysate, and 1% DMSO in a total volume of 28 μL in DHFR buffer were prepared in PCR tubes and incubated at room temperature for 20 min. Two DMSO-only controls were also prepared. Reactions containing inhibitors were then incubated at 45 °C for 3 min. One DMSO-only control was also heated at 45 °C for 3 min, and the other control was heated at 37 °C for 3 min. The soluble protein fraction was separated from the insoluble proteins by centrifugation, and proteins were separated by SDS-PAGE, as described above, and analyzed via Western blot, as described below. Each experiment was repeated 3 times.
(§2) Proteins were electrophoretically separated on a 10% gel, and proteins were transferred to a methanol-activated PVDF membrane using the Trans-Blot Turbo transfer system (Bio-Rad) for 7 min at 1.3 A and 25 V in Trans-Blot Turbo transfer buffer (Bio-Rad). Membranes were blocked with 5% skim milk w/v in TBS-T (20 mM Tris, 150 mM NaCl, 0.05% Tween-20) for 1 h at room temperature. […] The horseradish peroxidase (HRP)-linked anti-mouse IgG secondary antibody (NA931, Cytiva; 1:3000) was added for 1 h at room temperature in 5% skim milk w/v in TBS-T. Signal was detected by adding Immobilon Forte Western HRP Substrate (Millipore), and chemiluminescence was captured on a Sapphire Biomolecular Imager (Azure Biosystems). Band densities were determined using ImageJ (Fiji). The band intensity of DHFR was normalized to the thermostable loading control SOD1 [22].

[6] = tested on: MDA-MB468, MDA-MB-231, and MCF-7 breast cancer cell lines; assay: Dose-response viability in breast cancer cell lines (statements not split by line); type: cell-based, Human; details: 0–100 μM, 72 h
Procedure: as §1

[7] = tested on: leukemia; set-up: method as in PMID 5479856, PMID 5479852, PMID 5241406; details: early studies in the 1970s; cited from earlier work
[8] = tested on: T3, DHFR in MDA-MB-468 cells; assay: DHFR accumulation assay (Western blot); type: cell-based, Human; details: MDA-MB-468, 24 h, range 0.012–1 nM
T3 construct: reactions containing 55 μg MDA-MB-468 lysate; endogenous in cells; host or cells: MDA-MB-468
Procedure: Trypsinized MDA-MB-468 cells were seeded into 6-well plates at a density of 300,000 cells per 2 mL of media and allowed to adhere for 24 h. […] The final concentration of DMSO in each well was 1%. A DMSO-only control was also performed on each individual plate. Cells were then trypsinized, harvested by centrifugation at 200× g for 5 min at 4 °C, and washed once with PBS/PIC. Cell pellets were flash frozen using an ethanol/dry ice bath and stored at −80 °C prior to lysis. Each cell pellet was lysed as described above using 50 μL PBS/PIC per cell pellet. Samples were then analyzed by Western blot, as described below, using 30 μg lysate per lane. Band intensities of DHFR were normalized to the loading control SOD1 via densitometry using ImageJ (Fiji), and each DHFR band was normalized to the DMSO control. Fold-change in DHFR band intensity was plotted against inhibitor concentration (μM). Each experiment was performed two separate times as individual biological replicates (n = 2).
as §2

SMILES	IC50 [1] [nM]	Relative Viability (%) – Inhibitor + FA Treatment [2] [%]	Relative Viability (%) – Inhibitor Alone [2] [%]	Relative Viability (%) – Inhibitor + FA Treatment [3] [%]	Rescue of viability impairment by folinic acid [3]	Relative Viability (%) – Inhibitor Alone [3] [%]	Relative Viability (%) – Inhibitor + FA Treatment [4] [%]	Rescue of viability impairment by folinic acid [4]	Relative Viability (%) – Inhibitor Alone [4] [%]	Normalized Band Density (%) of soluble DHFR [5]	Normalized Band Density (%) of soluble DHFR ([5]; listed as NSC123032) [%]	Phenotypic response in viability dose-response [6]	Anti-leukemic activity in vivo [7]	Rescue of viability impairment by folinic acid [2]	Normalized Band Density (%) of soluble DHFR ([5]; listed as NSC127153) [%]	Concentration giving notable accumulation of DHFR [8] [nM]
CC1(C)N=C(N)N=C(N)N1c1ccc(CCCCc2ccc(S(=O)(=O)F)cc2)cc1 [compound 123032]	1170 ± 460	104.16 ± 6.3	81.94 ± 19.4	103.45 ± 16.5	largest amplitude of rescue	57.55 ± 3.1	66.59 ± 2.1	rescued in all but MDA-MB-468 cells	71.41 ± 10.0	greater than 100%	121.24 ± 45.6	little effect at low concentrations and cytotoxicity at higher concentrations	promising anti-leukemic activity in vivo			
CC1(C)N=C(N)N=C(N)N1c1ccc(CCCCc2ccccc2)cc1 [compound 127153]	930 ± 240	56.75 ± 7.9	43.03 ± 13.9	55.71 ± 12.7	failed to rescue	45.99 ± 10.6	23.92 ± 7.7	failed to rescue	17.90 ± 7.8	greater than 100%		induce growth arrest at low concentrations and induce cell death at higher concentrations	promising anti-leukemic activity in vivo	failed to rescue	100.16 ± 36.4	0.33
CC1(C)N=C(N)N=C(N)N1c1ccc(CCCCc2ccccc2)c(Cl)c1 [compound 128184]	720 ± 240	48.65 ± 6.9	35.94 ± 11.4	53.14 ± 12.7	failed to rescue	42.94 ± 9.7	16.09 ± 10.4	failed to rescue	12.35 ± 8.6			induce growth arrest at low concentrations and induce cell death at higher concentrations	promising anti-leukemic activity in vivo	failed to rescue		0.33
